Data published in patent US5075307A, “Paraherquamide and dihydroparaherquamide as antihelminthic agents” (Merck & Co., Inc., priority 1987, dated 1991).

Legend:
Solubility = assay type: physicochemical
[1] = test system: Dermacentor albipictus larvae; test: Tick larvae immersion test; conditions: same suspension of crude extract as Example 13, 2 ml whole broth equivalent, immersed 10 minutes
Method: The same suspension used in Example 13 was used at a concentration of 2 ml whole broth equivalent to screen for activity against tick larvae. For this test Dermacentor albipictus larvae were immersed in 2 ml whole broth equivalent Paraherquamide for 10 minutes. The liquid was then removed with vacuum retaining the ticks on drug-impregnated filter paper.

[2] = test system: H. contortus, O. circumcincta, T. axei, T. colubriformis, C. curticei, C. oncophora, and Oe. columbianum; test: Fecal worm egg counts of treated infected sheep; assay type: in vivo; conditions: 3 treated sheep (6, 3 or 1 mg/kg P.O. single dose), four days following treatment, from 4,000-20,000 EPG
Method: (§1) Four "Parasite-free" sheep were exposed to infection with infective L3 of H. contortus, O. circumcincta, T. axei, T. colubriformis, C. curticei, C. oncophora, and Oe. columbianum. Twenty-four days after the last oral dose of infective larvae, when the infections were patent, three of the sheep were randomly assigned to treatment with either 6, 3 or 1 mg/kg body weight of paraherquamide as a single oral dose. The fourth sheep was maintained as an untreated control. All treatments were administered as solutions at a volume of 0.2 ml/kg P.O.: 6 mg/kg as a solution containing 30 mg/ml; 3 mg/kg as a solution containing 15 mg/ml; 1 mg/kg as a solution containing 5 mg/ml. The vehicle used was a mixture of dimethylsulfoxide: propylene glycol:miglyol (1.5:5:3.5).

Trichostrongylus axei = test: Anthelmintic activity, single oral dose in experimentally infected sheep: residual worm burden vs untreated control; assay type: in vivo; conditions: 8 days after treatment
Method: as §1
(§2) Eight days following treatment the treated and control sheep were sacrificed and their residual worm burdens were recovered and identified using standard procedures. The worm burdens of the treated sheep were compared with that of the untreated control and the evaluations are tabulated as Table 1.

Cooperia spp. = test: as above; assay type: in vivo; conditions: 8 days after treatment
Method: as §1, §2

[3] = test system: Haemonchus contortus (benzimidazole resistant isolate); test: as above; assay type: in vivo; conditions: 8 days after treatment
Method: as §1, §2

[4] = test system: Oesophagostomum columbianum; test: as above; assay type: in vivo; conditions: 8 days after treatment, control worm burden 7
Method: as §1, §2

Cooperia curticei = test: as above; assay type: in vivo; conditions: 8 days after treatment
Method: as §1, §2

Cooperia oncophora = test: as above; assay type: in vivo; conditions: 8 days after treatment
Method: as §1, §2

[5] = test system: Trichostrongylus colubriformis (benzimidazole resistant isolate); test: as above; assay type: in vivo; conditions: 8 days after treatment
Method: as §1, §2

Ostertagia circumcincta = test: as above; assay type: in vivo; conditions: 8 days after treatment; for Efficacy, Ostertagia circumcincta L4: L4 stage; for Efficacy, Ostertagia circumcincta, Adult: adult stage
Method: as §1, §2

## CN1C(=O)C23CC4C1(CN2CCC3(C)O)CC1(C(=O)Nc2c1ccc1c2OC=CC(C)(C)O1)C4(C)C (stereo not shown) [Paraherquamide]
Solubility; organic solvents
  solubility in organic solvents: soluble
Solubility; water
  solubility in water: slight solubility
[1]
  activity against tick larvae: rapidly and completely active
[2]
  fecal worm egg counts: barely detectable or undetectable level
Trichostrongylus axei; 1.0 mg/kg P.O. single dose
  Efficacy, Trichostrongylus axei: 3 (≥91% effective)
Trichostrongylus axei; 3.0 mg/kg P.O. single dose
  Efficacy, Trichostrongylus axei: 3 (≥91% effective)
Trichostrongylus axei; 6.0 mg/kg P.O. single dose
  Efficacy, Trichostrongylus axei: 3 (≥91% effective)
Cooperia spp.; 1.0 mg/kg P.O. single dose
  Efficacy, Cooperia spp.: 3 (≥91% effective)
Cooperia spp.; 3.0 mg/kg P.O. single dose
  Efficacy, Cooperia spp.: 3 (≥91% effective)
Cooperia spp.; 6.0 mg/kg P.O. single dose
  Efficacy, Cooperia spp.: 3 (≥91% effective)
[3]; 1.0 mg/kg P.O. single dose
  Efficacy, Haemonchus contortus: 3 (≥91% effective)
[3]; 3.0 mg/kg P.O. single dose
  Efficacy, Haemonchus contortus: 3 (≥91% effective)
[3]; 6.0 mg/kg P.O. single dose
  Efficacy, Haemonchus contortus: 3 (≥91% effective)
[4]; 1.0 mg/kg P.O. single dose
  Efficacy, Oesophagostomum columbianum: 0 (0-50% effective)
[4]; 3.0 mg/kg P.O. single dose
  Efficacy, Oesophagostomum columbianum: 3 (≥91% effective)
[4]; 6.0 mg/kg P.O. single dose
  Efficacy, Oesophagostomum columbianum: 3 (≥91% effective)
Cooperia curticei; 1.0 mg/kg P.O. single dose
  Efficacy, Cooperia curticei: 3 (≥91% effective)
Cooperia curticei; 3.0 mg/kg P.O. single dose
  Efficacy, Cooperia curticei: 3 (≥91% effective)
Cooperia curticei; 6.0 mg/kg P.O. single dose
  Efficacy, Cooperia curticei: 3 (≥91% effective)
Cooperia oncophora; 1.0 mg/kg P.O. single dose
  Efficacy, Cooperia oncophora: 3 (≥91% effective)
Cooperia oncophora; 3.0 mg/kg P.O. single dose
  Efficacy, Cooperia oncophora: 3 (≥91% effective)
Cooperia oncophora; 6.0 mg/kg P.O. single dose
  Efficacy, Cooperia oncophora: 3 (≥91% effective)
[5]; 1.0 mg/kg P.O. single dose
  Efficacy, Trichostrongylus colubriformis: 3 (≥91% effective)
[5]; 3.0 mg/kg P.O. single dose
  Efficacy, Trichostrongylus colubriformis: 3 (≥91% effective)
[5]; 6.0 mg/kg P.O. single dose
  Efficacy, Trichostrongylus colubriformis: 3 (≥91% effective)
Ostertagia circumcincta; 1.0 mg/kg P.O. single dose
  Efficacy, Ostertagia circumcincta L4: 2 (76-90% effective)
  Efficacy, Ostertagia circumcincta, Adult: 3 (≥91% effective)
Ostertagia circumcincta; 3.0 mg/kg P.O. single dose
  Efficacy, Ostertagia circumcincta L4: 3 (≥91% effective)
  Efficacy, Ostertagia circumcincta, Adult: 3 (≥91% effective)
Ostertagia circumcincta; 6.0 mg/kg P.O. single dose
  Efficacy, Ostertagia circumcincta L4: 3 (≥91% effective)
  Efficacy, Ostertagia circumcincta, Adult: 2 (76-90% effective)
